Read-outs that look alike come from different tables or passages of the source.
What was measured:
HCT116 = test: MTT cytotoxicity assay, HCT116; assay type: cell-based, human; settings: 72 h
Protocol: (§1) Cytotoxicity Assays. […] The cells were incubated with the tested compounds for 72 hours in a five-dose assay ranging from 0.01 to 100 μM concentration. After drug treatments, MTT solution was added to test the percentage growth of tumor cells.
(§2) The compounds were incubated with the cells for 72 hours in a five-dose assay ranging from 0.01 to 100 μM concentration. At the end of the incubation, the MTT solution was added to test the percentage growth of tumor cells.
(§3) For the drug treatment experiments, the cancer cells were treated with the compounds (predissolved in DMSO) at a five-dose assay ranging from 0.01 to 100 μM concentration. […] After 4 h incubation, the formazan crystal formed in the well was dissolved with […] of DMSO for optical density reading at 570 nm. The GI50 value was calculated by nonlinear regression analysis (GraphPad Prism).

MCF-7 = test: MTT cytotoxicity assay, MCF-7; assay type: cell-based, human; settings: Table 7, read-out: GI50 ± SC (μM) MCF-7
Protocol: as §2, §3

A549 = test: MTT cytotoxicity assay, A549; assay type: cell-based, human
Protocol: as §1, §2, §3

DU145 = test: MTT cytotoxicity assay, DU145; assay type: cell-based, human; settings: 72 h
Protocol: as §1, §2, §3

CCRF-CEM = test: MTT cytotoxicity assay, CCRF-CEM; assay type: cell-based, human; settings: 72 h, Table 1b
Protocol: as §1, §3

Top1 = biological target: T1, Top1 (Homo sapiens, UniProt P11387); test: Top1-mediated DNA cleavage assay; assay type: biochemical
T1 sequence (P11387 1-765): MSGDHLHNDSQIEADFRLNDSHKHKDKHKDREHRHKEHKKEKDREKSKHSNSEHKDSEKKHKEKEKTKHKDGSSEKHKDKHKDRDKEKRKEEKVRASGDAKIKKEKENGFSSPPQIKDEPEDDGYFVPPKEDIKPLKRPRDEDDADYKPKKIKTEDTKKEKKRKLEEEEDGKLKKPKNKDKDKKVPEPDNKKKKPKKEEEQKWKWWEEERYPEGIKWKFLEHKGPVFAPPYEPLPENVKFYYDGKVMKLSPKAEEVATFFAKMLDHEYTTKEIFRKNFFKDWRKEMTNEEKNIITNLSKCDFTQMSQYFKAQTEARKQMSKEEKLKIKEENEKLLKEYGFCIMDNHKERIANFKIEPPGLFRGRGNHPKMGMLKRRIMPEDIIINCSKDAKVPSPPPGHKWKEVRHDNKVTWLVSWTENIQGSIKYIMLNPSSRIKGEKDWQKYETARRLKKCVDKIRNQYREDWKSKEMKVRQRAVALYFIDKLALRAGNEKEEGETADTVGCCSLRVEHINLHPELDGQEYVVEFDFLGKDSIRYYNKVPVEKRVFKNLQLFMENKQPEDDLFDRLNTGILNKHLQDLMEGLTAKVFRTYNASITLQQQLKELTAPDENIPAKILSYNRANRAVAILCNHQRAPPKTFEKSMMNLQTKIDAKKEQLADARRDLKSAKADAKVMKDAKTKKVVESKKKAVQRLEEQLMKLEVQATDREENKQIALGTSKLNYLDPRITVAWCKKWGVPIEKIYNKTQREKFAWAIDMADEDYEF

Huh7 = test: MTT cytotoxicity assay, Huh7; assay type: cell-based, human; settings: Table 1b
Protocol: as §1, §3

[1] = biological target: T2, Top1-DNA covalent cleavage complexes in HCT116 cells (Homo sapiens, UniProt P11387); test: Immunocomplex of enzyme to DNA (ICE) assay; assay type: cell-based; settings: HCT116, 25, 50 and 100 μM
T2 construct: endogenous in cells; host or cells: HCT116 (human colon cancer)

Tdp1 = Tdp1 (Homo sapiens, UniProt Q9NUW8); test: Tdp1 inhibition fluorescence assay; assay type: biochemical; settings: compounds at 100 μM
Protocol: Tdp Inhibition. […] The compounds were tested at 100 μM concentration. […] Fluorescence assay. […] Tdp1 solution (20 μL/well, 0.02 μL purified Tdp1 (100 nM) in 10 mM Tris-HCl, pH 7.5, 50 mM KCL, I mM EDTA, 1 mM DTT) was dispensed into wells of a white 384-well plate (NEST). The tested compound solution in DMSO (5 μL) was pinned into assay plates and incubated at room temperature for 30 min. […] Tdp percentage inhibition of the tested compounds was calculated by comparing the rate of increase in fluorescence throughout time for the compound-treated wells to that of DMSO control wells.

[2] = Table 7, read-out: GI50 ± SC (μM) HCT116
[3] = 72 h, Table 7, read-out: GI50 ± SC (μM) A-49
[4] = Table 7, read-out: GI50 ± SC (μM) DU145
[5] = graded relative to CPT at 1 μM, Table 7
[6] = Table 1b, read-out: GI50 (μM) HCT116
[7] = 72 h, Table 1b, read-out: GI50 (μM) A549
[8] = Table 1b, read-out: GI50 (μM) DU145

Sequence of Tdp1 (Q9NUW8 whole entry): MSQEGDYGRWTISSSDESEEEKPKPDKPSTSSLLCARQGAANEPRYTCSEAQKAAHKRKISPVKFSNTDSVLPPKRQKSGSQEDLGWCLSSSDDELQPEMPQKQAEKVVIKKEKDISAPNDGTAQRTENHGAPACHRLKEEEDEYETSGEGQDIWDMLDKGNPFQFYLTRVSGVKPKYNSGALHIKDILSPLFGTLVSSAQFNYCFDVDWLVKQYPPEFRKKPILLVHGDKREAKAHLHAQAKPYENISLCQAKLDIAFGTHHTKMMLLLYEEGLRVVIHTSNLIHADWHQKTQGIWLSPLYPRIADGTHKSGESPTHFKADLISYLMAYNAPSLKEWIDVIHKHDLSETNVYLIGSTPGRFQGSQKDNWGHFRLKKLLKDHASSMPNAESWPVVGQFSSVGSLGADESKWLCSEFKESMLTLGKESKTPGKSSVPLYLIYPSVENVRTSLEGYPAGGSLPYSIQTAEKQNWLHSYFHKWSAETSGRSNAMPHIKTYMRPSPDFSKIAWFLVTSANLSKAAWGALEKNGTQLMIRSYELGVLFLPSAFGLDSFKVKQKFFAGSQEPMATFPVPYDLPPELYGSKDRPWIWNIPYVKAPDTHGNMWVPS

Row | Molecule | GI50 (HCT116; [2]) [µM] | GI50 (MCF-7; 72 h) [µM] | GI50 (A549; [3]) [µM] | GI50 (DU145; [4]) [µM] | TOP1 inhibition (Top1; [5]) | further results
1 | COc1cc2c(=O)n(CCN(C)S(=O)(=O)C(F)(F)F)c3c4cc5c(cc4ccc3c2cc1OC)OCO5 [Compound 51, N-(2-(2,3-dimethoxy-13-oxo-[1,3]dioxolo[4′5′:4,5]benzo[1,2-c]phenanthridin-12(13H)-yl)ethyl)-1,1,1-trifluoro-N-methylmethanesulfonamide] | 86 ± 2.5 | 35 ± 1.7 | 42 ± 0.98 | 65 ± 1.2 |  | 
2 | CC[C@@]1(O)C(=O)OCc2c1cc1n(c2=O)Cc2cc3ccccc3nc2-1 [Compound 1, camptothecin, reference compound] |  |  |  |  | ++++ | GI50 (CCRF-CEM; Homo sapiens, CCRF-CEM): 0.007 ± 0.003 µM; GI50 (MCF-7; Homo sapiens, MCF7, 72 h): 0.012 ± 0.002 µM; GI50 (A549; Homo sapiens, A549, 72 h, Table 7, read-out: GI50 ± SC (μM) A-49): 0.099 ± 0.017 µM; TOP1 inhibition (Top1; semi-quantitative score relative to CPT (1) at 1 μM, tested at 0.1-100 μM): ++++ (++++, equal activity); GI50 (Huh7; Homo sapiens, Huh-7, 72 h): 0.099 ± 0.017 µM; induction of cellular Top1cc [1]: induced the formation of cellular TOP1 cc in a dose-dependent manner
3 | COc1cc2c(=O)n(CCNS(=O)(=O)N(C)C)c3c4cc5c(cc4ccc3c2cc1OC)OCO5 [Compound 59, N-(2-(2,3-dimethoxy-13-oxo-[1,3]dioxolo[4′,5′:4,5]benzo[1,2-c]phenanthridin-12(13H)-yl)ethyl)dimethylamine-1-sulfonamide] | 30 ± 2.1 | 21 ± 1 | 35 ± 0.14 | 45 ± 1.2 | + (+, between 20% and 50% activity) | 
4 | COc1cc2c(=O)n(C)c3c4cc5c(cc4ccc3c2cc1OC)OCO5 [Compound 6, oxynitidine, reference compound] |  |  |  |  |  | GI50 (HCT116; [6]): 74.8 ± 4.36 µM; GI50 (CCRF-CEM): 26.5 ± 5.41 µM; GI50 (A549; [7]): 39.4 ± 26.2 µM; GI50 (Huh7; 72 h): > 100 µM; GI50 (DU145; [8]): 64.2 ± 10.9 µM
5 | COc1cc2c(=O)n(CCNS(=O)(=O)C3CC3)c3c4cc5c(cc4ccc3c2cc1OC)OCO5 [Compound 58, N-(2-(2,3-dimethoxy-13-oxo-[1,3]dioxolo[4′,5′:4,5]benzo[1,2-c]phenanthridin-12(13H)-yl)ethyl)cyclopropanesulfonamide] | 5.2 ± 0.13 | 3 ± 0.63 | 4.3 ± 0.21 | 1.3 ± 0.32 | ++ (++, between 50% and 75% activity) | 
6 | COc1cc2c(=O)n(CCNS(=O)(=O)N3CCOCC3)c3c4cc5c(cc4ccc3c2cc1OC)OCO5 [Compound 61, N-(2-(2,3-dimethoxy-13-oxo-[1,3]dioxolo[4′,5′:4,5]benzo[1,2-c]phenanthridin-12(13H)-yl)ethyl)morpholine-4-sulfonamide] | 1.1 ± 0.047 | 0.89 ± 0.12 | 2.9 ± 0.027 | 1.6 ± 0.021 | ++ (++, between 50% and 75% activity) | 
7 | COc1cc2c(=O)n(CCN(C)S(=O)(=O)C3CC3)c3c4cc5c(cc4ccc3c2cc1OC)OCO5 [Compound 52, N-(2-(2,3-dimethoxy-13-oxo-[1,3]dioxolo[4′,5′:4,5]benzo[1,2-c]phenanthridin-12(13H)-yl)ethyl)-N-methylcyclopropanesulfonanide] | 7.9 ± 0.15 | 5.8 ± 0.89 | 15 ± 1.5 | 10 ± 1.2 | + (+, between 20% and 50% activity) | 
8 | Dimethyl(2-(2,3-dimethoxy-13-oxo-[1,3]dioxolo[4′,5′:4,5]benzo[1,2-c]phe-nanthridin-12(13H)-yl)ethyl)(methyl)phosphoramidate [Compound 56] | 9.2 ± 0.14 | 10 ± 0.54 | 14 ± 1.4 | 5.3 ± 0.21 | ++ (++, between 50% and 75% activity) | 
9 | COc1cc2c(=O)n(CCNS(=O)(=O)N3CCCC3)c3c4cc5c(cc4ccc3c2cc1OC)OCO5 [Compound 60, N-(2-(2,3-dimethoxy-13-oxo-[1,3]dioxolo[4′,5′:4,5]benzo[1,2-c]phenanthridin-12(13H)-yl)ethyl)pyrrolidine-1-sulfonamide] | 34 ± 1.1 | 38 ± 0.78 | 61 ± 0.15 | 79 ± 1 |  | 
10 | COc1cc2c(=O)n(CCN(C)S(=O)(=O)N3CCCC3)c3c4cc5c(cc4ccc3c2cc1OC)OCO5 [Compound 54, N-(2-(2,3-dimethoxy-13-oxo-[1,3]dioxolo[4,5′:4,5]benzo[1,2-c]phenanthridin-12(13H)-yl)ethyl)-N-methylpyrrolidine-1-sulfonamide] | 2.5 ± 0.18 | 3.8 ± 0.25 | 5.3 ± 0.41 | 3.1 ± 0.3 | + (+, between 20% and 50% activity) | 
11 | N-(2-(2,3-dimethoxy-13-oxo-[1,3]dioxolo[4′,5′:4,5]benzo[1,2-c]phenanthridin-12(13H)-yl)ethyl)-N-methyldiethylamine-1-sulfonamide [Compound 53] | 0.96 ± 0.04 | 1.5 ± 0.15 | 7.9 ± 0.23 | 15 ± 0.59 | + (+, between 20% and 50% activity) | 
12 | COc1cc2c(=O)n(CCN(C)S(=O)(=O)N3CCOCC3)c3c4cc5c(cc4ccc3c2cc1OC)OCO5 [Compound 55, N-(2-(2,3-dimethoxy-13-oxo-[1,3]dioxolo[4′,5′:4,5]benzo[1,2-c]phenanthridin-12(13H)-yl)ethyl)-N-methylmorpholine-4-sulfonamide] | 40 ± 1.2 | 64 ± 0.57 | 35 ± 2.5 | 48 ± 1.2 | + (+, between 20% and 50% activity) | 
13 | COc1cc2c(=O)n(CCNP(=O)(OC)OC)c3c4cc5c(cc4ccc3c2cc1OC)OCO5 [Compound 62, Dimethyl(2-(2,3-dimethoxy-13-oxo-[1,3]dioxolo[4′,5′:4,5]benzo[1,2-c]phenanthridin-12(13H)-yl)ethyl)phosphoramidate] | 51 ± 1.5 | 48 ± 1.9 | 41 ± 2 | 39 ± 2.2 |  | 
14 | COc1cc2c(cc1OC)-c1ccc3cc4c(cc3c1N(CCN1CCCC1)C2)OCO4 [Compound 28a, 2,3-Dimethoxy-12-(2-(pyrrolidin-1-yl)ethyl)-12,13-dihydro-[1,3]dioxolo[4′,5′:4,5]benzo[1,2-c]phenanthrdine] |  |  |  |  |  | GI50 (HCT116; [6]): 4.25 ± 3.11 µM; GI50 (CCRF-CEM): 1.25 ± 0.18 µM; GI50 (A549; [7]): 6.59 ± 1.29 µM; GI50 (Huh7; 72 h): 8.07 ± 1.3 µM; GI50 (DU145; [8]): 2.04 ± 0.41 µM; TDP1 inhibition (Tdp1): 0%
15 | COc1cc2c(=O)n(CCNC(=O)C3CC3)c3c4cc5c(cc4ccc3c2cc1OC)OCO5 [Compound 63, N-(2-(2,3-dimethoxy-13-oxo-[1,3]dioxolo[4,5′:4,5]benzo[1,2-c]phenanthridin-12(13H)-yl)ethyl)cyclopropanecarboxamide] | 5.3 ± 0.11 | 2.2 ± 0.27 | 1.3 ± 0.006 | 7.8 ± 0.52 | + (+, between 20% and 50% activity) | 

From US12655107B2 (The United States of America, as represented by the …, priority 2018, dated 2026)
